{"source": "patent US9255101B2", "about": "(BIOPROJECT, priority 2012, dated 2016)", "note": "Counter-ions that a name gives are not always drawn.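 Note: radioligand displacement of a [3H]-labelled ligand from membranes of CHO cells stably expressing human H4 receptor, bound radioactivity counted on filters by liquid scintillation.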", "data": [{"biological_target": "human H4 receptor (Homo sapiens, UniProt Q9H3N8)", "sequence (Q9H3N8 whole entry)": "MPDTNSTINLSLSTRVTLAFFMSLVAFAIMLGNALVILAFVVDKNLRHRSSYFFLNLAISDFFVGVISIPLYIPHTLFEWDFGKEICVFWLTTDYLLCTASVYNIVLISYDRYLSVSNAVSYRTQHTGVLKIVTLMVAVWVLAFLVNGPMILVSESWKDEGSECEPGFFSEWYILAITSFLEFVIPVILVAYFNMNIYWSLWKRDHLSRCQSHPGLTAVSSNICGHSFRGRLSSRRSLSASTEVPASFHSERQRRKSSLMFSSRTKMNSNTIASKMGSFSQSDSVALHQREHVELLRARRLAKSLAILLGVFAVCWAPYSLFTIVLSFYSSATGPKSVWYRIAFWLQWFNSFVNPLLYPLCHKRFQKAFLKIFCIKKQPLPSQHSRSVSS", "assay": "biochemical", "units": {"Ki": "nM"}, "values": [{"smiles": "Cc1c(-c2ccc(NC(=S)NC3CC3)cc2)nc2n1CCc1ccccc1C2OC1CCN(C)CC1", "note": "(stereo not shown) [Example 208, 1-cyclopropyl-3-{4-[1-methyl-4-(1-methylpiperidin-4-yloxy)-9,10-dihydro-4H-3,10a-diaza-benzo[f]azulen-2-yl]-phenyl}-thiourea]", "Ki": "< 300"}, {"smiles": "CN1CCC(OC2c3ccccc3CCn3cc(C=CCOCc4ccccc4)nc32)CC1", "note": "(stereo not shown) [Example 124, 2-(3-benzyloxypropenyl)-4-(1-methylpiperidin-4-yloxy)-9,10-dihydro-4H-3,10a-diaza-benzo[f]azulene oxalate]", "Ki": "< 300"}, {"smiles": "CN1CCC(OC2c3ccccc3CCn3cc(-c4ccc(CN5CCCC5=O)cc4)nc32)CC1", "note": "(stereo not shown) [Example 184, 1-{4-[4-(1-methylpiperidin-4-yloxy)-9,10-dihydro-4H-3,10a-diaza-benzo[f]azulen-2-yl]benzyl}-pyrrolidin-2-one]", "Ki": "< 1000"}, {"smiles": "Cc1c(-c2ccncc2)nc2n1CCc1ccccc1C2OC1CCN(C)CC1", "note": "(stereo not shown) [Example 250, 1-methyl-4-(1-methylpiperidin-4-yloxy)-2-pyridin-4-yl-9,10-dihydro-4H-3,10a-diaza-benzo[f]azulene]", "Ki": "< 1000"}, {"smiles": "Cc1c(-c2ccc(CCNC(=O)OC(C)(C)C)cc2)nc2n1CCc1ccccc1C2OC1CCN(C)CC1", "note": "(stereo not shown) [Example 223, (2-{4-[1-methyl-4-(1-methylpiperidin-4-yloxy)-9,10-dihydro-4H-3,10a-diaza-benzo[f]azulen-2-yl]-phenyl}-ethyl)-carbamic acid tert-butyl ester]", "Ki": "< 30"}, {"smiles": "Ic1nc2n(c1I)CCc1ccccc1C2OCCN1CCCCC1", "note": "(stereo not shown) [Example 265, 1,2-diiodo-4-(2-piperidin-1-yl-ethoxy)-9,10-dihydro-4H-3,10a-diaza-benzo[f]azulene]", "Ki": "< 1000"}, {"smiles": "Cc1c(-c2ccc(NC(=O)NC(C)(C)C)cc2)nc2n1CCc1ccccc1C2OC1CCN(C)CC1", "note": "(stereo not shown) [Example 209, 1-tertbutyl-3-{4-[1-methyl-4-(1-methylpiperidin-4-yloxy)-9,10-dihydro-4H-3,10a-diaza-benzo[f]azulen-2-yl]-phenyl}-urea]", "Ki": "< 30"}, {"smiles": "COCc1ccc(-c2cn3c(n2)C(OC2CCN(C)CC2)c2ccccc2CC3)cc1", "note": "(stereo not shown) [Example 19, 2-(4-methoxymethylphenyl)-4-(1-methylpiperidin-4-yloxy)-9,10-dihydro-4H-3,10a-diaza-benzo[f]azulene oxalate]", "Ki": "< 300"}, {"smiles": "CN1CCC(OC2c3cccc(Cl)c3CCn3cc(-c4ccccc4)nc32)CC1", "note": "(stereo not shown) [Example 91, 8-chloro-4-(1-methylpiperidin-4-yloxy)-2-phenyl-9,10-dihydro-4H-3,10a-diaza-benzo[f]azulene]", "Ki": "< 300"}, {"smiles": "CN1CCC(OC2c3ccccc3CCn3cc(-c4ccc(OCC5CC5)cc4)nc32)CC1", "note": "(stereo not shown) [Example 193, 2-(4-cyclopropylmethoxyphenyl)-4-(1-methylpiperidin-4-yloxy)-9,10-dihydro-4H-3,10a-diaza-benzo[f]azulene]", "Ki": "< 300"}, {"smiles": "Cc1c(-c2ccccn2)nc2n1CCc1ccccc1C2OC1CCN(C)CC1", "note": "(stereo not shown) [Example 251, 1-methyl-4-(1-methylpiperidin-4-yloxy)-2-pyridin-2-yl-9,10-dihydro-4H-3,10a-diaza-benzo[f]azulene]", "Ki": "< 300"}, {"smiles": "Cc1c(-c2ccc(NC(=O)OC3CCCC3)cc2)nc2n1CCc1ccccc1C2OC1CCN(C)CC1", "note": "(stereo not shown) [Example 172, {4-[1-methyl-4-(1-methylpiperidin-4-yloxy)-9,10-dihydro-4H-3,10a-diaza-benzo[f]azulen-2-yl]-phenyl}-carbamic acid cyclopentyl ester]", "Ki": "< 30"}, {"smiles": "Cc1c(-c2ccc(SC(C)(C)C)cc2)nc2n1CCc1ccccc1C2OC1CCN(C)CC1", "note": "(stereo not shown) [Example 166, 2-(4-tert-butylsulfanylphenyl)-1-methyl-4-(1-methylpiperidin-4-yloxy)-9,10-dihydro-4H-3,10a-diaza-benzo[f]azulene oxalate]", "Ki": "< 30"}, {"smiles": "CN1CCC(OC2c3cccc(-c4ccccc4)c3CCn3cc(-c4ccccc4)nc32)CC1", "note": "(stereo not shown) [Example 92, 4-(1-methylpiperidin-4-yloxy)-2,8-diphenyl-9,10-dihydro-4H-3,10a-diaza-benzo[f]azulene]", "Ki": "< 300"}, {"smiles": "Cc1c(-c2ccc(N)cc2)nc2n1CCc1ccccc1C2OC1CCN(C)CC1", "note": "(stereo not shown) [Example 173, 4-[1-methyl-4-(1-methylpiperidin-4-yloxy)-9,10-dihydro-4H-3,10a-diaza-benzo[f]azulen-2-yl]-phenylamine]", "Ki": "< 300"}, {"smiles": "Cc1c(-c2ccc(C3CCN(C(=O)OC(C)(C)C)CC3)cc2)nc2n1CCc1ccccc1C2OC1CCN(C)CC1", "note": "(stereo not shown) [Example 177, 4-{4-[1-methyl-4-(1-methylpiperidin-4-yloxy)-9,10-dihydro-4H-3,10a-diaza-benzo[f]azulen-2-yl]-phenyl}-piperidine-1-carboxylic acid tert-butyl ester]", "Ki": "< 30"}, {"smiles": "CCOC(=O)c1c(C)nc2n1CCc1ccccc1C2OC1CCN(C)CC1", "note": "(stereo not shown) [Example 116, 2-methyl-4-(1-methylpiperidin-4-yloxy)-9,10-dihydro-4H-3,10a-diazabenzo[f]azulene-1-carboxylic acid ethyl ester]", "Ki": "< 300"}, {"smiles": "CC(C)Cc1ccc(-c2cn3c(n2)C(OC2CCN(C)CC2)c2ccccc2CC3)cc1", "note": "(stereo not shown) [Example 28, 2-(4-isobutylphenyl)-4-(1-methylpiperidin-4-yloxy)-9,10-dihydro-4H-3,10a-diaza-benzo[f]azulene]", "Ki": "< 30"}, {"smiles": "C=CCOc1ccc(-c2cn3c(n2)C(OC2CCN(C)CC2)c2ccccc2CC3)cc1", "note": "(stereo not shown) [Example 183, 2-(4-allyloxyphenyl)-4-(1-methylpiperidin-4-yloxy)-9,10-dihydro-4H-3,10a-diaza-benzo[f]azulene]", "Ki": "< 30"}, {"smiles": "COC(=O)c1c(-c2ccccc2)nc2n1CCc1ccccc1C2OC1CCN(C)CC1", "note": "(stereo not shown) [Example 256, 4-(1-methylpiperidin-4-yloxy)-2-phenyl-9,10-dihydro-4H-3,10a-diaza-benzo[f]azulene-1-carboxylic acid methyl ester]", "Ki": "< 300"}, {"smiles": "CN1CCC(OC2c3ccccc3CCn3cc(C4=CCSCC4)nc32)CC1", "note": "(stereo not shown) [Example 57, 2-(3,6-dihydro-2H-thiopyran-4-yl)-4-(1-methylpiperidin-4-yloxy)-9,10-dihydro-4H-3,10a-diaza-benzo[f]azulene]", "Ki": "< 300"}, {"smiles": "CN1CCC(OC2c3ccccc3CCn3c2nc(Cc2ccccc2)c3C#N)CC1", "note": "(stereo not shown) [Example 263, 2-benzyl-4-(1-methylpiperidin-4-yloxy)-9,10-dihydro-4H-3,10a-diaza-benzo[f]azulene-1-carbonitrile]", "Ki": "< 300"}, {"smiles": "CN1CCC(OC2c3ccccc3CCn3cc(-c4ccc(N(C)C)cc4)nc32)CC1", "note": "(stereo not shown) [Example 35, dimethyl-{4-[4-(1-methylpiperidin-4-yloxy)-9,10-dihydro-4H-3,10a-diaza-benzo[f]azulen-2-yl]-phenyl}-amine oxalate]", "Ki": "< 1000"}, {"smiles": "Cc1c(-c2ccc(C(=O)NC3CCC(O)CC3)cc2)nc2n1CCc1ccccc1C2OC1CCN(C)CC1", "note": "(stereo not shown) [Example 216, N-(4-hydroxycyclohexyl)-4-[1-methyl-4-(1-methylpiperidin-4-yloxy)-9,10-dihydro-4H-3,10a-diaza-benzo[f]azulen-2-yl]-benzamide]", "Ki": "< 300"}, {"smiles": "CN1CCC(OC2c3ccccc3CCn3cc(-c4ccc(CCSC(C)(C)C)cc4)nc32)CC1", "note": "(stereo not shown) [Example 189, 2-[4-(2-tert-butylsulfanylethyl)-phenyl]-4-(1-methylpiperidin-4-yloxy)-9,10-dihydro-4H-3,10a-diaza-benzo[f]azulene]", "Ki": "< 300"}]}]}
